Article PMC10761933, “Acquired and intrinsic resistance to vemurafenib in BRAF^V600E ‐driven melanoma brain metastases” (FEBS Open Bio, 2023)

Experiments:
[1] = Vemurafenib distribution in plasma, brain regions and tumor of A375 tumor‐bearing mice (LC–MS/MS); type: in vivo; settings: for discrepancy in plasma concentration vs the previous pharmacokinetic experiment: 4 h after third daily administration
Protocol: To study its distribution in tumor‐bearing mice, vemurafenib was administered p.o. to tumor‐bearing mice for 3 days at a dose of 10 or 25 mg·kg^−1 q.d., starting 14 days after intracranial tumor cell injection. One group of mice received 10 mg·kg^−1 vemurafenib 4 h after administration of 100 mg·kg^−1 elacridar. Four hours after the third administration, blood was collected by heart puncture, and whole brains were dissected and divided into four parts: ipsilateral hemisphere (tissue from the tumor‐bearing hemisphere that was free of macroscopic tumor tissue), contralateral hemisphere (the tumor‐free hemisphere), cerebellum and macroscopic tumor. In a follow‐up experiment, tissues and plasma were collected 4 h after 5 and 10 consecutive daily p.o. administrations of vemurafenib. All tissues were weighed and subsequently homogenized using a FastPrep®‐24 (MP‐Bio‐medicals, Irvine, CA, USA) in 3 mL 1% (w/v) bovine serum albumin. All tissue samples were prepared for LC–MS/MS analysis as described above for plasma samples.
The LC–MS/MS system consisted of an API 3000 mass spectrometer (Sciex, Framingham, MA, USA) coupled to an UltiMate 3000 LC System (Dionex, Sunnyvale, CA, USA). Samples were separated using a ZORBAX Extend‐C18 column (Agilent, Santa Clara, CA, USA), preceded by a Securityguard C18 precolumn (Phenomenex, Utrecht, the Netherlands). Elution was done using a mixture of mobile phase A (0.1% formic acid in water (v/v)) and mobile phase B (methanol) in a 5 min gradient from 20% to 95% B, followed by 95% B that was maintained for 3 min and then re‐equilibrated at 20% B. Multiple reaction monitoring parameters were 490.2/383.1 (vemurafenib) and 496.2/389.1 (vemurafenib‐^13C6). System control and data analysis were done using ANALYST ® 1.6.2 software (AB Sciex, Foster City, CA, USA).

[2] = oral, WT mice; cited from earlier work
[3] = tested on: melanoma brain metastases; settings: MBM patients; cited from earlier work
[4] = tested on: intracranial A375 tumors; assay: Immunohistochemical analysis of vemurafenib‐resistant A375 melanoma brain metastases; type: in vivo; settings: Abcb1a/b;Abcg2−/− mice, 10 mg·kg^−1 × 10d, vs untreated
Protocol: Mouse brains were fixed in 4% (v/v) formaldehyde. Alternatively, whole heads without skin were fixed in 4% (v/v) formaldehyde and 5% (v/v) glacial acetic acid and subsequently decalcified using a 6.5% (v/v) formic acid solution for 3 days at 37 °C. After fixation, samples were paraffin embedded and sliced into 4 μm thick sections. Whole head slides were stained for hematoxylin and eosin (H&E), human vimentin (1 : 4000; M0725; DakoCytomation, Glostrup, Denmark), P‐gp (1 : 200; 13978; Cell Signaling Technology, Danvers, MA, USA), BCRP (1 : 400; ab24115; Abcam, Cambridge, UK), and CD31 (1 : 200; ab28364; Abcam). Vessel positivity for P‐gp, BCRP, and CD31, as quantified in Fig. 1B, was manually scored in at least 200 vessels per staining. Specific antibody staining for P‐gp and BCRP was validated previously using whole head slices from Abcb1a/b;Abcg2 ^ −/− mice (fig. S2 from).
Brain slides were stained for H&E, PDGFRβ (1 : 50; 3169; Cell Signaling Technology), phospho‐MET (1 : 150; 3077; Cell Signaling Technology), MET (1 : 100; AF527; R&D Systems, Minneapolis, MN, USA), phospho‐IGF1R (1 : 40 000; sc‐101703; Santa Cruz Biotechnology, Dallas, TX, USA), AXL (1 : 100; 8661; Cell Signaling Technology), NGFR (1 : 400; 8238; Cell Signaling Technology), phospho‐EGFR (1 : 600; ab40815; Abcam), EGFR (1 : 200; ab52894; Abcam), BRAF^V600E (1 : 100; E19290; SpringBioscience, Pleasanton, CA, USA), phospho‐ERK1/2 (1 : 200; 4370; Cell Signaling Technology), phospho‐AKT (1 : 8000; 4060; Cell Signaling Technology), phospho‐S6 (1 : 1000; 2211; Cell Signaling Technology), phospho‐4EBP1 (1 : 100; 2855; Cell Signaling Technology), 4EBP1 (1 : 1200; 9644; Cell Signaling Technology), SOX10 (1 : 100; sc‐17342; Santa Cruz Biotechnology), MITF (1 : 100; 284 M‐94; Cell Marque, Rocklin, CA, USA), and Ki‐67 (1 : 3000; ab15580; Abcam).

## CCCS(=O)(=O)Nc1ccc(F)c(C(=O)c2c[nH]c3ncc(-c4ccc(Cl)cc4)cc23)c1F [vemurafenib]
[1]; 4 h after third daily oral administration
  levels in tumor core of WT mice relative to Abcb1a/b;Abcg2−/− mice: approximately half
[1]; Abcb1a/b;Abcg2−/− mice and WT mice also receiving elacridar
  concentration in tumor regions, 10 days vs 5 days of treatment: even higher at the later time point
[1]; FVB nude, mouse, oral, 25 mg·kg^−1, WT mice, stated as very close to the total blood volume of the murine brain, read-out: tissue–plasma ratios in normal brain regions
  Kp at 4 h: ~0.02
[1]; WT mice, 4 h after third daily oral administration
  penetration in normal brain regions: negligible
[1]; tumor‐bearing Abcb1a/b;Abcg2−/− mice
  discrepancy in plasma concentration vs the previous pharmacokinetic experiment: twofold
[1]; tumor‐bearing WT mice that also received elacridar
  discrepancy in plasma concentration vs the previous pharmacokinetic experiment: no difference
[1]; tumor‐bearing WT mice, 25 mg·kg^−1
  plasma concentration, long‐term (10 days) vs short‐term (5 days) treated: considerably lower
[1]; tumor‐bearing WT mice, 25 mg·kg^−1, 4 h after third daily administration
  plasma concentration relative to the previous pharmacokinetic experiment (single dose, tumor‐free): around one‐fourth
[2]
  brain–plasma ratio: around 0.02
[3]
  median overall survival: 4.3 months
[4]
  PDGFRβ expression (immunohistochemistry): appeared to be diminished
  proliferation marker Ki‐67 (immunohistochemistry): similarly unaffected
[4]; n = 2 per group
  immunohistochemical staining of phospho‐S6 and phospho‐4EBP1: profoundly reduced
